Measurements published in US5783568A, “Methods for treating cancer and other cell proliferative diseases” (Sugen, Inc., priority 1994, dated 1998).
Entries after “also recorded” stand apart in the source; their conditions may differ.

Assays:
sFGFR = test: aFGF/sFGFR/heparin complex formation by non-denaturing PAGE; type: binding, human; details: aFGF alone or heparin alone
Method: aFGF, heparin or a mixture of aFGF and heparin were added to sFGFR. Free aFGF and sFGFR were separated from the complexes by gel-filtration, and fractions containing the complexes were analyzed by non-denaturing PAGE. Proteins were visualized by staining with Coomasie Brilliant blue. Various oligomerization states of aFGF/sFGFR are detected only in the presence of heparin.
aFGF alone, or a pre-incubated mixture of heparin and aFGF (molar ratio 1:10) was added to a solution containing sFGFR. The mixtures were then incubated for 20 min at room temperature in 20 mM Hepes pH 7.5, 200 mM NaCl. Size-exclusion chromatography, using a Superose 12 column (Pharmacia), was then employed to separate free aFGF and sFGFR from the complex that formed. Fractions containing the isolated complexes were pooled, and analyzed by non-denaturing PAGE (4-15% gradient gels), using the Phastsystem (Pharmacia). Gels were stained with Coomassie Blue. In the case of the sFGFR/heparin mixture (FIG. 4, lane 2), heparin was simply added to the sFGFR solution prior to electrophoresis.
The requirement of both heparin and aFGF for the induction of sFGFR dimerization was also confirmed in a second experimental system. sFGFR was incubated with aFGF alone, or with aFGF plus heparin.

[1] = system: sFGFR (soluble extracellular domain of FGFR2); test: Covalent cross-linking (DSS) of sFGFR, dimerization; type: biochemical, human
Method: Purified sFGFR was incubated with aFGF in the presence (lanes 2, 4, 6 and 8) or absence (lanes 1, 3, 5 and 7) of heparin for 1 hour at room temperature. The covalent cross-linker, DSS, was then added and incubation was continued for a further 45 minutes. Samples were then boiled in Laemmli sample buffer, separated by SDS-PAGE (6-12% gradient gel), and transferred to a nitro-cellulose membrane. The protein bands were visualized by blotting with anti-FGFR2 (lanes 1-4) or anti-aFGF antibodies (lanes 5-8), followed by ^125 I-protein A. I-sFGFR monomers; II-aFGF/sFGFR complex (monomeric); III-aFGF/sFGFR complex (dimeric).
A plasmid encoding the extracellular, ligand-binding domain of human FGFR2 (residues 1-355) was constructed using standard oligonucleotide-directed mutagenesis (Amersham) to introduce a translational termination codon immediately prior to the beginning of the single transmembrane domain of the receptor (Dionne et al., 1990). BamHI and SacII restriction sites were introduced 3' to the new termination codon. An XbaI-SacII fragment was isolated from the replicative form (RF) of this M13 mutagenesis product, filled in using T4 DNA polymerase (Boehringer-Mannheim) and inserted into the SmaI site of the expression vector pCVN (Dionne et al., 1990). This expression vector, which contains both the neomycin resistance and the dihydrofolate reductase genes for selection and amplification, was transfected into CHO cells following published procedures. Wigler et al., 1979, Cell 16:777-785.
Purified sFGFR (0.2 μM) was incubated with aFGF (0.6 μM) in the presence or absence of heparin. […] Cross-linking studies of aFGF alone were performed using the same procedure, except that samples were analyzed by 15% SDS-PAGE and detected by staining with Coomassie Brilliant Blue.
If aFGF activates its receptor in a similar manner, aFGF binding to sFGFR would therefore be expected to promote its dimerization. […] Samples were then analyzed by SDS-PAGE, followed by immunoblotting with either anti-FGFR2 or anti-aFGF antibodies. […]

Substance	mobility of sFGFR in non-denaturing PAGE (sFGFR)	sFGFR dimerization, aFGF alone ([1]; no heparin)	sFGFR dimerization, heparin plus aFGF ([1]; both heparin and aFGF)	effect on mobility of sFGFR, heparin alone ([1]; no aFGF)
aFGF: aFGF was expressed in E. coli and purified by binding to a heparin-sepharose column	reduced slightly	No cross-linked dimeric form of sFGFR could be detected; also recorded: they were not detected in the presence of aFGF alone; also recorded: did not, however, result in the formation of dimers of the receptor extracellular domain		
heparin	no significant effect upon the migration of sFGFR		cross-linked dimers of sFGFR are formed under these conditions; also recorded: the binding of aFGF to sFGFR did lead to its dimerization	did not affect the mobility of sFGFR
